Test results reported in PMC10605847 (Cancers, 2023).

Assays:
HDAC1 = biological target: T1, HDAC1 (Homo sapiens, UniProt Q13547); experiment: HDAC1 fluorimetric inhibitory activity assay (Fluor de Lys kit); type: biochemical; conditions: read-out: HDAC1-Inhibitory Ability (IC50)
T1 construct: purchased Enzo Life Sciences International, Inc
Description: HDAC1-inhibitory activity was determined using the HDAC activity analysis kit by fluorescence measurement (HDAC1 Fluorimetric Drug Discovery Assay Kit A Fluoro de Lys Fluorescent Assay System, Enzo Life Sciences International, Inc., Farmingdale, New York, USA) in accordance with the manufacturer’s instructions. Fluorescence was measured at an excitation wavelength of 360 nm and emission of 460 nm. […] All experiments were carried out in three repetitions.

HeLa cells = experiment: MTT cell viability, HeLa; conditions: Homo sapiens, 24 h, read-out: IC50 cytotoxic effect, HeLa
Description: (§1) For all experiments using cell lines, cells were cultured in a DMEM culture medium with the addition of 10% fetal bovine serum, 2 mM glutamine and 1% penicillin-streptomycin as antibiotics under standard conditions at 37 °C with 5% CO2.
(§2) Cell viability was measured using MTT analysis, as described earlier [48]. In short, 10,000 HeLa and Hek-293 cells per well were placed in sterile 96-well culture plates and cultured under the standard conditions described above for 24 h to adhere. After the time elapsed, the cells were treated with the studied compounds in a concentration range from 0.1 to 100 µM (0.1–1–3–10–30–100) and incubated for 24 h. The control samples contained an equivalent volume of solvent (DMSO < 1%). At the end of incubation, cell viability was measured by adding an MTT solution (the final concentration was 5 mg/mL, DiaM, Moscow, Russia). After 2 h of incubation at 37 °C, the nutrient medium was carefully aspirated and replaced with 200 µL of dimethyl sulfoxide to dissolve the formazane granules. The optical density of the formazane solution was determined using a multifunctional analyzer Cytation™3 (BioTek Instruments, Inc., Winooski, VT, USA) at λ = 530 nm. All experiments were carried out in three repetitions.

[1] = MTT cell viability, Hek-293; conditions: human, Hek-293 cells
Description: as §1, §2

PA-1 cells = experiment: Glycolysis stress test (Seahorse XFe96, ECAR); type: cell-based, human; conditions: PA-1, 100 µM
Description: In order to achieve a 90–95% monolayer, approximately 40,000 PA-1 cells per well were placed in XF96 cell-culture plates and a glycolysis stress test was performed 24 h later using an XFe96 extracellular flow analyzer (Seahorse Bioscience, North Billerica, MA, USA) by measuring the rate of extracellular medium acidification (ECAR).
Briefly, after the cells were seeded, the plate was placed in an incubator and cultured for 24 h under the standard conditions described above.
After placing the tablet in the analyzer, a step-by-step measurement of the extracellular acidification rate of the medium was performed in response to the sequential addition of modulators: port A—the studied compounds at a concentration of 100 µM, port B—10 mM of glucose (Seahorse Bioscience, North Billerica, MA, USA), port C—1 µM of oligomycin (Sigma Aldrich, St. Louis, MI, USA) and port D—25 mM 2-deoxy-D-glucose (Sigma Aldrich, St. Louis, MI, USA). To ensure the stability of each measurement, three separate readings were taken.
Glycolysis was measured by estimating the difference between the maximum ECAR after glucose injection and the last measurement before glucose addition. Such a parameter of glycolytic function as glycolytic capacity was determined by analyzing the difference between the maximum ECAR after oligomycin injection and the last measurement before glucose addition. Glycolytic reserve was defined as the difference between glycolytic capacity and glycolysis.

HeLa cell line = experiment: Cisplatin cytotoxicity alone and combined with hydroxamic acids, HeLa (MTT); type: cell-based, human; conditions: 5 µM of compound with cisplatin
Description: Cell viability was measured using MTT analysis, as described earlier [48]. In short, 10,000 HeLa and Hek-293 cells per well were placed in sterile 96-well culture plates and cultured under the standard conditions described above for 24 h to adhere. After the time elapsed, the cells were treated with the studied compounds in a concentration range from 0.1 to 100 µM (0.1–1–3–10–30–100) and incubated for 24 h. The control samples contained an equivalent volume of solvent (DMSO < 1%). At the end of incubation, cell viability was measured by adding an MTT solution (the final concentration was 5 mg/mL, DiaM, Moscow, Russia). After 2 h of incubation at 37 °C, the nutrient medium was carefully aspirated and replaced with 200 µL of dimethyl sulfoxide to dissolve the formazane granules. The optical density of the formazane solution was determined using a multifunctional analyzer Cytation™3 (BioTek Instruments, Inc., Winooski, VT, USA) at λ = 530 nm. […]
Then, the cells were treated with a combination of increasing doses of cytostatic agents and the test compound with a constant ratio of 1:4, and subsequently, a cell death analysis was performed. The CI values were calculated and plotted using CompuSyn.exe (Biosoft, Ferguson, MO, USA) based on the concentration and effect of each agent and their combinations according to instructions of the software. […]

HeLa/CDDP cells = experiment: Cisplatin cytotoxicity alone and combined with hydroxamic acids, cisplatin-resistant HeLa/CDDP (MTT); type: cell-based, human; conditions: 5 µM hydroxamic acid
Description: Cell viability was measured using MTT analysis, as described earlier [48]. In short, 10,000 HeLa and Hek-293 cells per well were placed in sterile 96-well culture plates and cultured under the standard conditions described above for 24 h to adhere. After the time elapsed, the cells were treated with the studied compounds in a concentration range from 0.1 to 100 µM (0.1–1–3–10–30–100) and incubated for 24 h. The control samples contained an equivalent volume of solvent (DMSO < 1%). At the end of incubation, cell viability was measured by adding an MTT solution (the final concentration was 5 mg/mL, DiaM, Moscow, Russia). […] The optical density of the formazane solution was determined using a multifunctional analyzer Cytation™3 (BioTek Instruments, Inc., Winooski, VT, USA) at λ = 530 nm. All experiments were carried out in three repetitions.

in vitro = conditions: human
Description: as §1, §2

T1 sequence (Q13547 whole entry): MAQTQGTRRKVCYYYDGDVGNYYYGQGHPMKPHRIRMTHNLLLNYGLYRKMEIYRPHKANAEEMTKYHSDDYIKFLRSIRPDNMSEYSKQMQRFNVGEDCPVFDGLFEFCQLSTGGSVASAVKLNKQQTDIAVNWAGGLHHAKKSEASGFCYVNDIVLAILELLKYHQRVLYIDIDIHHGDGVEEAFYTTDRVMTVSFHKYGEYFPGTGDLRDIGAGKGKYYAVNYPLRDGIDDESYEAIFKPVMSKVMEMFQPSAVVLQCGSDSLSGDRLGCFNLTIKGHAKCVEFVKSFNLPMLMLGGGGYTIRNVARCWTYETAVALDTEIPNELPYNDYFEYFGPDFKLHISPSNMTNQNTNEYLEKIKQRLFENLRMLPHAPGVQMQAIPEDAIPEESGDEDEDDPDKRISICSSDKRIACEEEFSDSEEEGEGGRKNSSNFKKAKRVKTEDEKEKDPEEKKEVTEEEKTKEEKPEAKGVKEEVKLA

Row | SMILES | IC50 (HDAC1) [µM] | melting point [°C] | IC50 (HeLa cells) [µM] | IC50 at 24 h [1] [µM] | inhibition at 100 µM (PA-1 cells; Homo sapiens, vs. control, read-out: inhibition of glycolytic reserve (ECAR)) [%] | glycolytic capacity (maximum ECAR after oligomycin injection) (PA-1 cells; p < 0.0001 vs. control) | reduction of glycolysis (ECAR) (PA-1 cells; vs. control) [%] | decrease in the value of cisplatin IC50 (HeLa cell line) [%] | fold decrease in the IC50 of cisplatin (HeLa/CDDP cells) | IC50 at 24 h (in vitro) [µM]
1 | CC1(C)C2CC=C(CNC(=O)/C=C/c3ccc(C(=O)NO)cc3)[C@H]1C2 [18b, 4-((E)-3-((((1S)-6,6-Dimethylbicyclo[3.1.1]hept-2-en-2-yl)methyl)amino)-3-oxoprop-1-en-1-yl)-N-hydroxybenzamide] | 7.96 ± 0.28 |  | 43.6 ± 1.02 | 38.9 ± 1.24 |  |  |  |  |  | 
2 | CC(/C=C/C(=O)NO)=C\[C@@H](C)C(=O)c1ccc(N(C)C)cc1 [Trichostatin A, reference compound] |  |  | 0.38 ± 0.02 | 0.22 ± 0.01 |  |  |  |  |  | 
3 | CC1(C)C2CC=C(CNC(=O)c3ccc(/C=C/C(=O)NO)cc3)[C@@H]1C2 [21a, N-(((1R)-6,6-Dimethylbicyclo[3.1.1]hept-2-en-2-yl)methyl)-4-((E)-3-(hydroxyamino)-3-oxoprop-1-en-1-yl)benzamide] | 7.23 ± 0.46 | 74.6 | 18 ± 0.47 |  |  |  |  |  |  | 21.2 ± 1.66
4 | CC1(C)C2CC=C(CNC(=O)c3ccc(/C=C/C(=O)NO)cc3)[C@H]1C2 [21b, N-(((1S)-6,6-Dimethylbicyclo[3.1.1]hept-2-en-2-yl)methyl)-4-((E)-3-(hydroxyamino)-3-oxoprop-1-en-1-yl)benzamide] | 8.2 ± 0.49 |  | 42.8 ± 1.28 |  |  |  |  |  |  | 37.2 ± 1.89

Further lines, with some results ahead:

Row | IC50 (HDAC1) [µM] | melting point [°C] | SMILES | IC50 (HeLa cells) [µM] | IC50 at 24 h [1] [µM] | inhibition at 100 µM (PA-1 cells; Homo sapiens, vs. control, read-out: inhibition of glycolytic reserve (ECAR)) [%] | glycolytic capacity (maximum ECAR after oligomycin injection) (PA-1 cells; p < 0.0001 vs. control) | reduction of glycolysis (ECAR) (PA-1 cells; vs. control) [%] | decrease in the value of cisplatin IC50 (HeLa cell line) [%] | fold decrease in the IC50 of cisplatin (HeLa/CDDP cells) | IC50 at 24 h (in vitro) [µM]
5 | 5 ± 0.12 | 132.5 to 132.6 | CC1(C)C2CC=C(CCNC(=O)c3ccc(/C=C/C(=O)NO)cc3)[C@@H]1C2 [21c, N-(2-((1R)-6,6-Dimethylbicyclo [3.1.1]hept-2-en-2-yl)ethyl)-4-((E)-3-(hydroxyamino)-3-oxoprop-1-en-1-yl)benzamide] | 19.1 ± 0.96 | 33.9 ± 2.59 |  |  |  |  |  | 
6 | 4.45 ± 0.3 |  | CC1(C)C2CC=C(CCNC(=O)/C=C/c3ccc(C(=O)NO)cc3)[C@@H]1C2 [18c, 4-((E)-3-((2-((1R)-6,6-Dimethylbicyclo[3.1.1]hept-2-en-2-yl)ethyl)amino)-3-oxoprop-1-en-1-yl)-N-hydroxybenzamide] | 33.8 ± 1.19 | 34 ± 3.04 | 86 | significantly lower | 26.6 | 34.50 | approximately 2.02 fold | 
7 | 6.9 ± 0.03 | 96.5 | CC1(C)C2CC=C(CNC(=O)/C=C/c3ccc(C(=O)NO)cc3)[C@@H]1C2 [18a, 4-((E)-3-((((1R)-6,6-Dimethylbicyclo[3.1.1]hept-2-en-2-yl)methyl)amino)-3-oxoprop-1-en-1-yl)-N-hydroxybenzamide] | 29.2 ± 1.06 | 46.7 ± 2.93 |  |  |  |  |  | 
